Bases are written 5' to 3'; sugars and linkages follow in the same order, as letters with counts (s phosphorothioate, o phosphodiester; PS: all linkages phosphorothioate). C may stand for cytosine or 5-methylcytosine; the collection does not tell. l = locked nucleic acid (LNA); d = 2'-deoxy (DNA)
biological target: HIF1A; assay: HeLa, 100 nM transfected, 24 h, mean of 3; details: ASO

Sequence | caspase activation (% of PBS control)
TGGCAAGCATCCTGTA (sugars lddllddddddldlll, PS) | 353
GTTACTGCCTTCTTAC (sugars l4 d9 l1 d1 l1, PS) | 191
GGCAAGCATCCTG (sugars l1 d2 l1 d6 l3, PS) | 397
GTTACTGCCTTCTTAC (sugars ldlddddddddlddll, PS) | 130
GGCAAGCATCCTG (sugars l1 d1 l1 d7 l3, PS) | 721
GTTACTGCCTTCTTAC (sugars ldddlddddddldddl, PS) | 137
GTTACTGCCTTCTTAC (sugars l4 d8 l1 d2 l1, PS) | 209
GTTACTGCCTTCTTAC (sugars l3 d10 l3, PS) | 134
GTTACTGCCTTCTTAC (sugars ldldlddddddllddl, PS) | 282
TACTGCCTTCTTA (sugars l4 d8 l1, PS) | 435
GTTACTGCCTTCT (sugars ldllddddddldl, PS) | 156
GTTACTGCCTTCTTAC (sugars llldlddddddlddll, PS) | 283
TGGCAAGCATCCTGTA (sugars l1 d11 l1 d2 l1, PS) | 190
GTTACTGCCTTCTTAC (sugars l2 d2 l1 d8 l3, PS) | 237
GTTACTGCCTTCTTAC (sugars lddllddddddldddl, PS) | 188
GTTACTGCCTTCTTAC (sugars l4 d9 l3, PS) | 160
GGCAAGCATCCTG (sugars l2 d8 l3, PS) | 657
GTTACTGCCTTCTTAC (sugars l1 d10 l3 d1 l1, PS) | 261
CAAGCATCCTGTA (sugars l4 d7 l2, PS) | 212
TGGCAAGCATCCTGTA (sugars ldddlddddddlldll, PS) | 285
CAAGCATCCTGTA (sugars l3 d8 l2, PS) | 302
GTTACTGCCTTCTTAC (sugars ldldddddddddldll, PS) | 112
TGGCAAGCATCCTGTA (sugars ldlldddddddlldll, PS) | 381
ACTGCCTTCTTAC (sugars l3 d7 l3, PS) | 403
TGGCAAGCATCCT (sugars ldllddddddldl, PS) | 377
GTTACTGCCTTCTTAC (sugars ldldldddddddddll, PS) | 151

Sequence | caspase activation (% of PBS control)
TGGCAAGCATCCTGTA (sugars l1 d11 l4, PS) | 346
TACTGCCTTCTTA (sugars lddlddddddldl, PS) | 133
GTTACTGCCTTCTTAC (sugars l4 d7 l1 d2 l2, PS) | 255
TGGCAAGCATCCTGTA (sugars l4 d8 l4, PS) | 349
TGGCAAGCATCCTGTA (sugars l4 d9 l3, PS) | 412
TGGCAAGCATCCTGTA (sugars lllllddddddldldl, PS) | 373
GCAAGCATCCTGT (sugars l2 d1 l1 d8 l1, PS) | 314
GCAAGCATCCTGT (sugars l1 d2 l1 d7 l2, PS) | 151
GTTACTGCCTTCTTAC (sugars ldldldddddddlldl, PS) | 280
TGGCAAGCATCCTGTA (sugars l2 d10 l1 d2 l1, PS) | 377
GGCAAGCATCCTG (sugars ldldddddddldl, PS) | 344
GTTACTGCCTTCTTAC (sugars llddlddddddllldl, PS) | 373
TGGCAAGCATCCTGTA (sugars l1 d3 l1 d6 l5, PS) | 396
TGGCAAGCATCCT (sugars l3 d7 l1 d1 l1, PS) | 268
ACTGCCTTCTTAC (sugars l2 d1 l1 d6 l3, PS) | 166
TGGCAAGCATCCTGTA (sugars ldllldddddddlldl, PS) | 440
GTTACTGCCTTCTTAC (sugars l3 d9 l4, PS) | 165
TGGCAAGCATCCTGTA (sugars llddlddddddllldl, PS) | 397
GTTACTGCCTTCTTAC (sugars l3 d1 l1 d7 l4, PS) | 324
TGGCAAGCATCCTGTA (sugars lldldddddddlddll, PS) | 460
TGGCAAGCATCCTGTA (sugars lldddddddddldldl, PS) | 423
GTTACTGCCTTCTTAC (sugars l1 d3 l1 d9 l2, PS) | 103
GTTACTGCCTTCTTAC (sugars llldlddddddlldll, PS) | 307
GTTACTGCCTTCTTAC (sugars l3 d8 l1 d3 l1, PS) | 198
GTTACTGCCTTCTTAC (sugars ldlddddddddldddl, PS) | 115
TGGCAAGCATCCTGTA (sugars ldlldddddddddldl, PS) | 297

Sequence | caspase activation (% of PBS control)
TGGCAAGCATCCT (sugars l1 d2 l1 d6 l3, PS) | 112
GTTACTGCCTTCTTAC (sugars l4 d7 l1 d3 l1, PS) | 250
ACTGCCTTCTTAC (sugars lddlddddddldl, PS) | 118
TGGCAAGCATCCTGTA (sugars l2 d10 l4, PS) | 346
GTTACTGCCTTCTTAC (sugars l2 d1 l2 d9 l2, PS) | 161
TACTGCCTTCTTA (sugars l1 d1 l2 d7 l2, PS) | 448
TGGCAAGCATCCT (sugars l1 d1 l1 d7 l3, PS) | 127
TGGCAAGCATCCT (sugars l1 d9 l3, PS) | 330
TGGCAAGCATCCT (sugars l1 d1 l2 d8 l1, PS) | 327
GGCAAGCATCCTG (sugars l2 d10 l1, PS) | 291
TGGCAAGCATCCT (sugars l2 d8 l1 d1 l1, PS) | 407
ACTGCCTTCTTAC (sugars ldldddddddldl, PS) | 208
CAAGCATCCTGTA (sugars l2 d8 l1 d1 l1, PS) | 175
TGGCAAGCATCCTGTA (sugars l4 d8 l1 d2 l1, PS) | 429
TGGCAAGCATCCTGTA (sugars lldldddddddldddl, PS) | 322
GTTACTGCCTTCTTAC (sugars llddlddddddldddl, PS) | 191
TGGCAAGCATCCTGTA (sugars ldllddddddddlldl, PS) | 412
TGGCAAGCATCCTGTA (sugars lddldddddddldddl, PS) | 173
TGGCAAGCATCCTGTA (sugars l2 d1 l1 d7 l5, PS) | 427
TGGCAAGCATCCTGTA (sugars ldlldddddddllddl, PS) | 360
TTACTGCCTTCTT (sugars l1 d2 l1 d8 l1, PS) | 105
TACTGCCTTCTTA (sugars l2 d1 l1 d8 l1, PS) | 222
GTTACTGCCTTCT (sugars l1 d2 l1 d6 l3, PS) | 134
TACTGCCTTCTTA (sugars l1 d2 l1 d7 l2, PS) | 156
GTTACTGCCTTCTTAC (sugars ldlllddddddlddll, PS) | 425
TACTGCCTTCTTA (sugars ldldddddddldl, PS) | 237

Sequence | caspase activation (% of PBS control)
GTTACTGCCTTCTTAC (sugars lldldddddddlddll, PS) | 161
TGGCAAGCATCCTGTA (sugars ldllddddddddldll, PS) | 466
ACTGCCTTCTTAC (sugars l1 d9 l1 d1 l1, PS) | 140
CAAGCATCCTGTA (sugars l1 d9 l3, PS) | 135
TGGCAAGCATCCTGTA (sugars lddlddddddddldll, PS) | 371
GTTACTGCCTTCTTAC (sugars l1 d2 l2 d7 l4, PS) | 361
TGGCAAGCATCCTGTA (sugars l3 d1 l1 d10 l1, PS) | 354
TGGCAAGCATCCT (sugars l2 d1 l1 d7 l2, PS) | 361
GTTACTGCCTTCTTAC (sugars lldldddddddllldl, PS) | 307
TGGCAAGCATCCTGTA (sugars llldldddddddlldl, PS) | 367
TGGCAAGCATCCT (sugars l1 d1 l2 d6 l3, PS) | 260
GCAAGCATCCTGT (sugars l4 d6 l3, PS) | 340
GGCAAGCATCCTG (sugars l3 d7 l3, PS) | 632
GTTACTGCCTTCT (sugars l1 d2 l1 d8 l1, PS) | 110
GTTACTGCCTTCTTAC (sugars l2 d1 l2 d10 l1, PS) | 161
TGGCAAGCATCCTGTA (sugars ldlllddddddldddl, PS) | 417
GCAAGCATCCTGT (sugars l1 d10 l2, PS) | 112
GTTACTGCCTTCTTAC (sugars l1 d13 l2, PS) | 87.3
GTTACTGCCTTCT (sugars l1 d1 l1 d7 l3, PS) | 170
TGGCAAGCATCCTGTA (sugars l4 d7 l1 d2 l2, PS) | 323
TGGCAAGCATCCTGTA (sugars l1 d10 l1 d2 l2, PS) | 261
ACTGCCTTCTTAC (sugars l1 d1 l2 d8 l1, PS) | 222
GTTACTGCCTTCT (sugars l4 d6 l3, PS) | 356

From the OligoGym collection
